Where two headings read alike, the source gives them in different places.
How the values were obtained:
panel of 219 kinases = conditions: read-out: IC50 of the remaining 197 kinases
[1] = test system: histone H3 phosphorylation in femur bone marrow; assay: pHH3 immunohistochemistry in mouse bone marrow; type: in vivo; conditions: for bone marrow cells positive for pHH3, times less evident than vehicle: 170 mg/kg IP BIW×3
Experimental: For each study, animals were randomized by tumor volume and distributed into groups of ten animals each. […] Inhibition of histone H3 (HH3) phosphorylation was evaluated in HCT 116 xenograft tumors, mouse femur bone marrow, and mouse skin punch biopsy sections by immunohistochemistry (IHC). […] The tumors were collected 6 hrs post-dose on day 4, 11, 18 and on day 25 (one week after completion of dosing phase of the experiment). Phosphorylated histone H3 (pHH3) was detected by immunohistochemistry staining of tissue sections with the antibody # 9701 (Cell Signaling Technology, Inc.), which recognizes phosphorylation of Ser10 residue in histone H3 protein.

[2] = test system: pHH3 in HCT 116 xenograft tumor; assay: Plasma concentration versus pHH3 in tumor (Western blot, ELISA, HPLC-MS/MS); type: in vivo, mouse
Experimental: When tumors reached an average volume of 400 mm^3, mice were sorted into randomized groups of 3 per time point. […] Tumor samples were frozen on liquid nitrogen, and ground into a fine powder. Lysis buffer containing phosphatase inhibitors was added to the tumor powder before homogenization and a snap freeze cycle. The cellular debris was removed by centrifugation, and the protein concentration was measured using the BioRad DC Protein Assay. […] Protein was transferred to PVDF membrane at a constant 30 V for 1 hr using the Invitrogen XCell II Blot Module transfer system and, upon completion, the membranes were incubated with 5% milk in TBST (Tris-buffered saline with Tween) at room temperature for 1 hr. […] Membranes were washed with TBST, and antibodies were detected with ECL Plus chemiluminescent detection system (Amersham), followed by exposure to Kodak BioMax film.
Films were visually assessed for total histone H3 (HH3) and histone H3 phosphorylation (pHH3). Total HH3 levels served as loading controls.
Phospho-histone H3 levels were determined using a commercial ELISA kit from (# KHO0671, Biosource/Invitrogen). The conditions were as described by the manufacturer with 100 μg total proteins from tumor lysates prepared as described in this Example.
Preparation of Plasma Samples. […]

A375 melanoma xenograft = assay: In vivo efficacy, mouse xenograft
Experimental: (§1) Percent TGI is then calculated with the following equation: […]
(§2) Time To Endpoint (TTE) was calculated for each individual animal to reach the predetermined study end point where the tumor volume becomes 1200 mm^3 or 10% of body weight or a greater than 20% body weight loss for two sequential measurements. The TTE is calculated and the median value is recorded for the group. Tumor Growth Delay (TGD) is then calculated with the following equation: […]
A375 melanoma tumor fragments (1 mm^3) were implanted subcutaneously in the right hind flank of mice. After 9 days, when tumors reached an average volume of approximately 110 mm^3, animals were weighed, randomized by tumor volume (l×w×h×0.52), and assigned to the various study groups before initial dosing.

[3] = test system: PC3 prostate tumor xenograft; assay: In vivo efficacy, mouse xenograft
Experimental: as §1, §2
PC3 prostate tumor fragments (1 mm^3) were implanted subcutaneously in the right hind flank of mice. After 21 days, when tumors reached a volume of approximately 120 mm^3, animals were weighed, randomized by tumor volume (l×w×h×0.52), and assigned to the various study groups before initial dosing.

Aurora C = Aurora C (Homo sapiens, UniProt Q9UQB9); assay: HTRF-based biochemical IC50 assay
Excerpt: […]. A biotin-conjugated histone H3 peptide (Upstate Biotechnology) was used as a substrate.

DDR2 = target: T1, DDR2 (Homo sapiens, UniProt Q16832); assay: Radiometric kinase assay (Upstate panel); type: biochemical
T1 construct: purchased Upstate Biotechnology, Dundee, UK

[4] = Distribution of compound in tumor and plasma, HCT 116 xenograft mice; type: in vivo, mouse; conditions: for half-life: female, nu/nu athymic, mouse, ip, 170 mg/kg
Experimental: The studies in Examples 20, 21, and 22 used female mice nu/nu athymic mice. Compound 1 was formulated fresh each week for dosing. […] HCT 116 colorectal carcinoma cells were implanted in the animals' right hind flanks subcutaneously with 200 μL of a 2.5×10^7 cells/mL suspension [1:1 Dulbecco's PBS (DPBS) with cells:Matrigel™. […] Dosing schedules are provided separately for each of the studies in Examples 28, 29, and 30. […] Terminal blood and tumor samples were harvested between 15 min and 96 hr. Female nu/nu athymic mice received HCT 116 colorectal cancer cell suspension (1:1 DPBS with cells:Matrigel) as a subcutaneous injection in the right hind flank. […] For HPLC-MS/MS, the detector consisted of an API4000 (Sciex/ABI, Foster City, Calif.) triple quadrapole mass spectrometer using turbo electrospray ionization.

[5] = test system: HCT 116 colon cancer xenograft; assay: In vivo efficacy, mouse xenograft
[6] = Clinical serum concentration versus target threshold; type: in vivo, human; conditions: patients; for Duration of target serum concentration: target serum concentration 1 μM
[7] = Mass balance, elimination, autoradiography and metabolites with 14C-label; type: in vivo; conditions: male rats, 14C-labeled Compound 1 IV bolus 50 mg/kg, total radioactivity
Experimental: Treated rats were further cannulated in femoral vein and the bile duct to allow for the evaluation of the rate and extent of elimination of total radioactivity from urine, bile, and feces. Total radioactivity was analyzed by liquid scintillation counting.
Preparation of samples for metabolite analysis was as follows. Plasma samples were extracted by protein precipitation with acetonitrile. The extraction was preformed by adding ice cold acetonitrile (3 parts) to plasma (1 part v/v). After the samples were mixed using a benchtop vortex mixer the samples were centrifuged, the supernatants were transferred to silanized glass tubes, evaporated to dryness under nitrogen, and reconstituted in 50/50 acetonitrile/water solution. Urine samples were directly injected. Bile samples containing radioactivity were diluted in water prior to injection.
Metabolites in plasma, urine, and bile were separated on a reverse phase HPLC column with an Agilent 1000 system (Santa Clara, Calif.).

[8] = Rising dose pharmacokinetics (exposure, gender); type: in vivo, rats; conditions: for clearance / half-life / Vd: Sprague-Dawley, plasma, iv
Excerpt: Pharmacokinetic parameters were estimated using noncompartmental analysis within WinNonlin v. 4.1. […] For rising dose experiments measuring exposure for each species, sets containing several animals were singly dosed at a given dose.

Aurora C, sequence (Q9UQB9 whole entry): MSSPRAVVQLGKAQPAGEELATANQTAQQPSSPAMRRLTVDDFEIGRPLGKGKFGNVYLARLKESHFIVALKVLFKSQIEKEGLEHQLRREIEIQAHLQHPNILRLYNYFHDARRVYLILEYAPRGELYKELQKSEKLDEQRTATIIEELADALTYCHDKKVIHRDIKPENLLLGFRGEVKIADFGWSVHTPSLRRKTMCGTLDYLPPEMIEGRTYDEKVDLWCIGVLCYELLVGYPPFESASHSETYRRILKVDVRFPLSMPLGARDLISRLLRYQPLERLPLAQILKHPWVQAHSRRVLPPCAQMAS
T1 sequence (Q16832 22-855): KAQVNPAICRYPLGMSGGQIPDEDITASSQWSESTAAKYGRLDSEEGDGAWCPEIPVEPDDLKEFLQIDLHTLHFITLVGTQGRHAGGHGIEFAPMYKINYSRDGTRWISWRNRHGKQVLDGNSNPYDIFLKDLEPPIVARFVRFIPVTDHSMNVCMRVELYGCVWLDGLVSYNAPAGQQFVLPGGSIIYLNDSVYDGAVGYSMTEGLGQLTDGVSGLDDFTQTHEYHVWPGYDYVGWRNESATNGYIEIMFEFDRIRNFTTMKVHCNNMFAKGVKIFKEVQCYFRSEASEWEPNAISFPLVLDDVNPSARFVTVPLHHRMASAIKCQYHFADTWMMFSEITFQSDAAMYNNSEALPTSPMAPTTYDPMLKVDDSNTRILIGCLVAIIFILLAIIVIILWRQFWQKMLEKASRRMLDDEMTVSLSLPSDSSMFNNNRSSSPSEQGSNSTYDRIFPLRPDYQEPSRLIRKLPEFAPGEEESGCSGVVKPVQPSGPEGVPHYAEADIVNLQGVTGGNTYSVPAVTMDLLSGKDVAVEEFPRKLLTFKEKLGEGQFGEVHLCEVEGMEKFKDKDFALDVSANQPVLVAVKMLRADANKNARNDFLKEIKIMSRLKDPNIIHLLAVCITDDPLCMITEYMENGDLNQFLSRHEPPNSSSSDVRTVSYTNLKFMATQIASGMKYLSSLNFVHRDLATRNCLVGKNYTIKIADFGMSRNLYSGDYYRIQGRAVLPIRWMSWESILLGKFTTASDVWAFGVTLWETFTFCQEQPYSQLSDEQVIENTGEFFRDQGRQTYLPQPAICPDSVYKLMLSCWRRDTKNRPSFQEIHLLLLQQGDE

With `CS(=O)(=O)O.O=C(Nc1cccc(Cl)c1)Nc1ncc(CCNc2ncnc3ccsc23)s1` [Compound 1, 1-(3-chlorophenyl)-3-{5-[2-(thieno[3,2-d]pyrimidin-4-ylamino)ethyl]thiazo}-urea] the IC50 (panel of 219 kinases) was at least 1 µM, the “bone marrow cells positive for pHH3, times less evident than vehicle” value ([1]; day 11) was 3 times and the “bone marrow cells positive for pHH3, times less evident than vehicle” value ([1]; day 18) was 7 times. For the same molecule, the “Histone H3 phosphorylation in bone marrow” value ([1]; day 25) was “recovered to normal levels”, the “time maximal inhibition of phospho-histone H3 in tumor was maintained” value ([2]; single dose of 170 mg/kg IP) was “up to 24 hours” and the “% TGI” value (A375 melanoma xenograft; 42.5 mg/kg biw × 3) was 1.2%. For the same molecule, the TGD (A375 melanoma xenograft; 42.5 mg/kg biw × 3) was 0 days, the “% TGI” value (A375 melanoma xenograft; 85 mg/kg biw × 3) was 20.6% and the TGD (A375 melanoma xenograft; 85 mg/kg biw × 3) was 0 days. For the same molecule, the “% TGI” value (A375 melanoma xenograft; 170 mg/kg biw × 3) was 65.4%, the TGD (A375 melanoma xenograft; 170 mg/kg biw × 3) was 7.4 days and the “% TGI” value ([3]; 42.5 mg/kg biw × 3) was 39.5%. The TGD ([3]; 42.5 mg/kg biw × 3) was 0 days, the “% TGI” value ([3]; 85 mg/kg biw × 3) was 63.6% and the TGD ([3]; 85 mg/kg biw × 3) was 12 days. For the same molecule, the “% TGI” value ([3]; 170 mg/kg biw × 3) was 67.5%, the TGD ([3]; 170 mg/kg biw × 3) was 25 days and the “IC50 values, Aurora kinase C (summary in words)” value (Aurora C) was “low nanomolar range”. For the same molecule, the IC50 (Aurora C; HTRF, N 1) was 0.0034 µM, the IC50 (DDR2) was 0.082 µM and the “time measurable drug levels are sustained in the HCT 116 tumor” value ([4]; post-dose) was “more than 96 hours”. The “% TGI (Day 36)” value ([5]; 100 mg/kg, qd × 5, 9 d off × 2) was 91.6%, the “% TGI (Day 36)” value ([5]; 125 mg/kg, Qw × 3) was 79.8% and the “% TGI (Day 36)” value ([5]; 150 mg/kg, biw × 3) was 95.6%.

In the case of `O=C(Nc1cccc(Cl)c1)Nc1ncc(CCNc2ncnc3ccsc23)s1` [Compound 2, 1-(3-chlorophenyl)-3-{5-[2-(thieno[3,2-d]pyrimidin-4-ylamino)ethyl]thiazol-2-yl}-urea], the “serum levels versus preclinical target inhibitory levels” value ([6]; 240 mg/m^2 dose level) is reported as “exceeded the preclinical target inhibitory levels”, the “minimum duration target serum concentration was achieved” value ([6]; all dose levels) is reported as at least 4 h and the “Duration of target serum concentration” value ([6]; 3-hour infusion of Compound 1, 30 mg/m^2) is reported as 4 h. The “Duration of target serum concentration” value ([6]; 3-hour infusion of Compound 1, 60 mg/m^2) was 8 h, the “Duration of target serum concentration” value ([6]; 3-hour infusion of Compound 1, 120 mg/m^2) was 10 h and the “Duration of target serum concentration” value ([6]; 3-hour infusion of Compound 1, 240 mg/m^2) was 20 h. For the same molecule, the “Duration of target serum concentration” value ([6]; 3-hour infusion of Compound 1, 480 mg/m^2) was 20 h, the “plasma concentration that produced maximal inhibition of phosphorylation of Histone H3 in tumor” value ([2]; 1 hr postdose, HCT 116 xenograft mice, FIG. 43B) was 5 µM and the “Mean cumulative % recovery” value ([7]; Bile, interval 0-8 hr) was 39.7%. The “Mean cumulative % recovery” value ([7]; Bile, interval 8-24 hr) was 68.5%, the “Mean cumulative % recovery” value ([7]; Bile, interval 24-48 hr) was 69.5% and the “Mean cumulative % recovery” value ([7]; Cumulative Total, 24 hr) was 89.7%. For the same molecule, the “Mean cumulative % recovery” value ([7]; Cumulative Total, 48 hr) was 92.3%, the “Mean cumulative % recovery” value ([7]; Feces, interval 0-24 hr) was 11.8% and the “Mean cumulative % recovery” value ([7]; Feces, interval 24-48 hr) was 13.2%. For the same molecule, the “Mean cumulative % recovery” value ([7]; Urine, interval 0-8 hr) was 6.1%, the “Mean cumulative % recovery” value ([7]; Urine, interval 8-24 hr) was 9.4% and the “Mean cumulative % recovery” value ([7]; Urine, interval 24-48 hr) was 9.6%. For the same molecule, the half-life ([4]; plasma, read-out: half-life in plasma (converted)) was 4.7 h, the half-life ([4]; tumor, read-out: half-life in tumor (converted)) was 7.5 h and the clearance ([8]; 60 mg/m2, rat, 60 mg/m^2) was 1.03 L/h/kg. The half-life ([8]; 60 mg/m2, rat, 60 mg/m^2) was 1.4 h, the Vd ([8]; 60 mg/m2, rat, 60 mg/m^2, read-out: Vss) was 1.3 L/kg and the clearance ([8]; 300 mg/m2, rat, 300 mg/m^2) was 0.24 L/h/kg. The half-life ([8]; 300 mg/m2, rat, 300 mg/m^2) was 1.7 h, the Vd ([8]; 300 mg/m2, rat, 300 mg/m^2, read-out: Vss) was 1.1 L/kg and the clearance ([8]; 600 mg/m2, rat, 600 mg/m^2) was 0.12 L/h/kg. The half-life ([8]; 600 mg/m2, rat, 600 mg/m^2) was 5.9 h, the Vd ([8]; 600 mg/m2, rat, 600 mg/m^2, read-out: Vss) was 1.1 L/kg and the “dose dependence of systemic exposure (AUC)” value ([8]; most pronounced in rats and mice, lesser extent in dogs) was “non-linear systemic exposure”.

Source: US20110293745A1, “AURORA KINASE INHIBITORS” (SUNESIS PHARMACEUTICALS, INC., priority 2008, published 2011)
